# According to patent publication US20160002596A1, “COMPOSITION FOR EX VIVO CULTURING OF A CORNEAL ENDOTHELIAL CELL AND A METHOD FOR USING THE COMPOSITION” (National Taiwan University, priority 2014, published 2016):
# Key:
# Assay type in all cases: cell-based, bovine
# [1] = system: corneal endothelial cells; assay: Phenotype (cell shape) of ex vivo cultured corneal endothelial cells, immunofluorescence staining against active beta-catenin
# [2] = system: corneal endothelial cells; assay: Growth / proliferation of ex vivo cultured corneal endothelial cells
# Text: Y-27632 is a known growth stimulator for corneal endothelial cells that is able to increase the ex vivo cell proliferation.
# [3] = system: active beta-catenin (ABC); assay: Western blot of active beta-catenin (ABC) expression in corneal endothelial cells
# Method: With reference to FIG. 5, FIG. 5 was the Western blot analysis showing the expression level of active beta-catenin (ABC) in corneal endothelial cells treated with different concentrations of Marimastat or ADAM10 (ADAM metallopeptidase domain 10) specific inhibitor GI254023X. In group 1-3, the corneal endothelial cells were incubated in the SHEM added with 100 nM, 1 uM or 10 uM of GI254023X, respectively. In group 4-6, cells were incubated in the SHEM added with 100 nM, 1 uM or 10 uM of Marimastat, respectively. In group 1-3, there was no reduction in the expression level of ABC in the presence of ADAM10 specific inhibitor, GI254023X. In group 4, ABC expression level was high despite 100 nM of Marimastat.
smiles,measurement,setting,value
CNC(=O)[C@@H](NC(=O)[C@H](CC(C)C)[C@H](O)C(=O)NO)C(C)(C)C [Marimastat],cell morphology of cultured corneal endothelial cells,[1]; group 2 or 4: SHEM with 10 uM MMPI (without or with 10 uM Y-27632) for 9 days,maintained hexagonal morphology
same,cell growth of corneal endothelial cells,"[2]; groups 2, 4 and 6: 10 uM MMPI added in the SHEM",not obviously inhibited or reduced
same,expression level of active beta-catenin (ABC),[3]; group 4: 100 nM in SHEM,high
same,expression level of active beta-catenin (ABC),"[3]; more than 1 uM in SHEM (groups 5-6: 1 uM, 10 uM)",significantly reduced
CNC(=O)[C@@H](NC(=O)[C@H](CCCc1ccccc1)[C@H](C)N(O)C=O)C(C)(C)C [GI254023X],expression level of active beta-catenin (ABC),"[3]; group 1-3: 100 nM, 1 uM or 10 uM in SHEM",no reduction
C[C@@H](N)[C@H]1CC[C@H](C(=O)Nc2ccncc2)CC1 [Y-27632],cell shape of cultured corneal endothelial cells,"[1]; group 3 or 5: SHEM with 10 uM Y-27632 (9 days, or first 3 days only)",elongated and fibroblast-like
same,proliferation of corneal endothelial cells,[2]; group 3 or 5: SHEM with 10 uM Y-27632,enhanced proliferation
